Laboratory results from ChEMBL document CHEMBL1201862, “PubChem BioAssay data set” (2004).
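These data come from cells grown in 96-well plates and exposed to compound for 48 hours at five concentrations. At the GI50, growth is halved.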 Calls of active or inactive are those of the source. Rule as the data show it: active = GI50 up to about 1.1 µM and inactive = higher.

What was measured:
Test in all cases: DTP human tumour cell line panel, 48 h
NCI-H522 = system: NCI-H522
BT-549 = system: BT-549
A498 = system: A498
CAKI-1 = system: CAKI-1
HL-60 = system: HL-60
DU-145 = system: DU-145
KM12 = system: KM12
HCT-116 = system: HCT-116
786-0 = system: 786-0
M14 = system: M14
PC-3 = system: PC-3
OVCAR-5 = system: OVCAR-5
OVCAR-3 = system: OVCAR-3
U-251 = system: U-251
UACC-62 = system: UACC-62
SK-MEL-2 = system: SK-MEL-2
RXF 393 = system: RXF 393
MOLT-4 = system: MOLT-4
NCI/ADR-RES = system: NCI/ADR-RES
HT-29 = system: HT-29

Measured: GI50

COc1c(OC)c(OC)c2c(=O)c(OC)c(-c3ccc4c(c3)OCO4)oc2c1OC
inactive: NCI-H522 > 100 µM | BT-549 > 100 µM | A498 66.2 µM | CAKI-1 > 100 µM | HL-60 11.6 µM | DU-145 > 100 µM | KM12 > 100 µM | HCT-116 86.7 µM | 786-0 > 100 µM | M14 > 100 µM | PC-3 69.2 µM | OVCAR-5 > 100 µM | OVCAR-3 > 100 µM | U-251 > 100 µM | UACC-62 > 100 µM | SK-MEL-2 > 100 µM | RXF 393 > 100 µM | MOLT-4 39.7 µM | NCI/ADR-RES 86.9 µM | HT-29 > 100 µM

COC(=O)/C=C1/OC(c2ccccc2)=C(Cl)C1=O
inactive: NCI-H522 17.9 µM | BT-549 18.5 µM | A498 29.4 µM | CAKI-1 18.2 µM | HL-60 3.95 µM | DU-145 29 µM | KM12 21 µM | HCT-116 13.1 µM | 786-0 18.3 µM | M14 16.9 µM | PC-3 15.2 µM | OVCAR-5 19 µM | OVCAR-3 16.7 µM | U-251 14 µM | UACC-62 18 µM | SK-MEL-2 21.3 µM | RXF 393 15.7 µM | MOLT-4 5.32 µM | NCI/ADR-RES 25.9 µM | HT-29 22.3 µM

CCCCN(CCCC)C1(c2cc3ccccc3s2)CCCCC1.[O-][Cl+3]([O-])([O-])O
inactive: NCI-H522 12.6 µM | BT-549 19.9 µM | A498 19.3 µM | CAKI-1 18.7 µM | HL-60 17.7 µM | DU-145 16.3 µM | KM12 16 µM | HCT-116 10.8 µM | 786-0 13.7 µM | M14 14.6 µM | PC-3 17.9 µM | OVCAR-5 18.4 µM | OVCAR-3 15.7 µM | U-251 17.3 µM | UACC-62 15.6 µM | SK-MEL-2 19.8 µM | RXF 393 16.6 µM | MOLT-4 13.6 µM | NCI/ADR-RES 17.7 µM | HT-29 13.1 µM

COc1ccc2cc(CNCCOCCOCCNCc3ccc4cc(OC)ccc4c3)ccc2c1
active: HL-60 0.216 µM | KM12 0.881 µM | 786-0 0.953 µM | M14 0.26 µM | MOLT-4 0.402 µM | HT-29 0.192 µM
inactive: NCI-H522 1.54 µM | BT-549 1.89 µM | A498 1.68 µM | CAKI-1 1.61 µM | DU-145 1.6 µM | HCT-116 1.23 µM | PC-3 1.54 µM | OVCAR-5 1.85 µM | OVCAR-3 1.73 µM | U-251 1.31 µM | UACC-62 1.78 µM | SK-MEL-2 1.53 µM | RXF 393 1.53 µM | NCI/ADR-RES 1.48 µM
